Experimental data taken from patent publication US12024498B2, “Radical compounds and methods of using thereof” (OHIO STATE INNOVATION FOUNDATION, priority 2017, dated 2024).
Like-named read-outs stand apart in the source and are kept apart here.

Target: 13C,15N-wt-huPrP23-144 fibrils (Homo sapiens, UniProt P04156)
[1] = 12 mM biradical in 6:3:1 d8-glycerol/D2O/H2O, 12 kHz MAS

Sequence of 13C,15N-wt-huPrP23-144 fibrils (P04156 23-144 limits assumed): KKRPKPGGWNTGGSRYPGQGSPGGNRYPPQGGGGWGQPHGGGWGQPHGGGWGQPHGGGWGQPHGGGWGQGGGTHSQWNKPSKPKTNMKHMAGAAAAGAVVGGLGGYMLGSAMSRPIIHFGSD

**Q.** TOAC-TOAC-Ser [TTS] was tested. Which Optimal recycle delay (12 mM biradical in 6:3:1 d8-glycerol/D2O/H2O) did it give?
**A.** Its Optimal recycle delay is 1.52 s.

**Q.** And the “1H T1” value [1]?
**A.** Its value is 1.29 s.

**Q.** And the εDNP [1]?
**A.** The εDNP was 18-25.

**Q.** And the τDNP [1]?
**A.** Its τDNP is 1.21 s.

**Q.** And the τDNP (12 mM biradical, huPrP23-144 fibril samples)?
**A.** The τDNP was 2 s.
